The source of these data is ChEMBL document CHEMBL1153442, “Synthesis and in vitro evaluation of sulfonamide isatin Michael acceptors as small molecule inhibitors of caspase-6” (J Med Chem, 2009).

As a reminder, the IC50 is the concentration needed to halve the response being measured.

One test deals with T1, Caspase-6 (Homo sapiens, UniProt P55212).
T1 sequence (P55212 whole entry): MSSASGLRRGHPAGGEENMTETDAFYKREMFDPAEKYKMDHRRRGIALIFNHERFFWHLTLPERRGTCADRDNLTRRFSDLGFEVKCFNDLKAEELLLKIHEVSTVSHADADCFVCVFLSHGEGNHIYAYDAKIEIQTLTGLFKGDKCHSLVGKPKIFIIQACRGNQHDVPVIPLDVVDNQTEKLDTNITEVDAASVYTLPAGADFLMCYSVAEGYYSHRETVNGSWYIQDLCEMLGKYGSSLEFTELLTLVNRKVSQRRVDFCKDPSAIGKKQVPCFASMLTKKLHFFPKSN
Put plainly: Inhibition of human recombinant caspase 6 assessed as accumulation of fluorogenic product by fluorometric assay.

A further test concerns the target T2, Caspase-1 (Homo sapiens, UniProt P29466).
T2 sequence (P29466 whole entry): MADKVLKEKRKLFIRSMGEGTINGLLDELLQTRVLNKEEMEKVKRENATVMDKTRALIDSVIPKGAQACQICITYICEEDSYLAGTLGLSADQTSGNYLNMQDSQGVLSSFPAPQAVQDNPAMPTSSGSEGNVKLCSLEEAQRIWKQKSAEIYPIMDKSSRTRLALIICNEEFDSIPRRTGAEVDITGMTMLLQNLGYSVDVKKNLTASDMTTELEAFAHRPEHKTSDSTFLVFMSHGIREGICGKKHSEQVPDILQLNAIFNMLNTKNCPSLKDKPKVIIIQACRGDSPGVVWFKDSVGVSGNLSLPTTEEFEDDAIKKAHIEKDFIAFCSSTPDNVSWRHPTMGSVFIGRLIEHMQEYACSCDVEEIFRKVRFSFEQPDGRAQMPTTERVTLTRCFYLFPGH
Put plainly: Inhibition of human recombinant caspase 1 assessed as accumulation of fluorogenic product by fluorometric assay.

In a further test the target is Caspase-8 (Homo sapiens, UniProt Q14790). Put plainly: Inhibition of human recombinant caspase 8 assessed as accumulation of fluorogenic product by fluorometric assay.
The target of a further test is T3, Caspase-3 (Homo sapiens, UniProt P42574).
T3 sequence (P42574 whole entry): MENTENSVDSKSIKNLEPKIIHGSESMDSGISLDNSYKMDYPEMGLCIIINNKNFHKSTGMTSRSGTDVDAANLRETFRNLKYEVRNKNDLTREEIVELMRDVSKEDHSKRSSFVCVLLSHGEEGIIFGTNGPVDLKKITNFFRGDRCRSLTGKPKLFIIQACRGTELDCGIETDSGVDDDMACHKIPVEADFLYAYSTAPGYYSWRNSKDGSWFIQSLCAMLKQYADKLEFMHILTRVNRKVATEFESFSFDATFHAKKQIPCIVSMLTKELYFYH
Put plainly: Inhibition of human recombinant caspase 3 assessed as accumulation of fluorogenic product by fluorometric assay.

The target of the next test is T4, Caspase-7 (Homo sapiens, UniProt P55210).
T4 sequence (P55210 whole entry): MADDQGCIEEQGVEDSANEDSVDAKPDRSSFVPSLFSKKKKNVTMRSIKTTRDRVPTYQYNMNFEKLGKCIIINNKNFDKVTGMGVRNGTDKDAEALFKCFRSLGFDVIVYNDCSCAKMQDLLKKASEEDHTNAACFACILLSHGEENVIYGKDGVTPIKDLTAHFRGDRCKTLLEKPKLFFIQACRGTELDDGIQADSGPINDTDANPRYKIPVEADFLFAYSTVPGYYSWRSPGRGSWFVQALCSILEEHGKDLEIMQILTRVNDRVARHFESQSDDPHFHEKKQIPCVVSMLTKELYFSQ
As to the kind of experiment: Inhibition of human recombinant caspase 7 assessed as accumulation of fluorogenic product by fluorometric assay.

The species entered for the next test is Homo sapiens. As to the kind of experiment: Selectivity for human recombinant caspase 3 over human recombinant caspase 6.

Chain of Caspase-8 (Q14790 217-374 limits assumed): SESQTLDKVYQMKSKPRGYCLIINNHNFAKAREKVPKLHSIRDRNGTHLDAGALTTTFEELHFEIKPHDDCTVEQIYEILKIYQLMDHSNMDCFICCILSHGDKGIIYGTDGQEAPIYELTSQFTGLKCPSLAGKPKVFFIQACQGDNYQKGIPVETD
Chain of Caspase-8 (Q14790 385-479 limits assumed): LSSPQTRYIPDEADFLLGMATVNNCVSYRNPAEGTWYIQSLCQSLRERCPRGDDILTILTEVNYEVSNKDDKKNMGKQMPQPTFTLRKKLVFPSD

With `COc1ccc(CN2C(=O)C(=C(C#N)C#N)c3cc(S(=O)(=O)N4CCOCC4)ccc32)cc1`, the IC50 on Caspase-6 was 453 nM; on Caspase-1, 6820 nM; on Caspase-8, greater than 50000 nM; on Caspase-3, 4630 nM; at Caspase-7 it was 4100 nM.

For `N#CC(C#N)=C1C(=O)N(Cc2ccccc2)c2ccc(S(=O)(=O)N3CCCCC3)cc21`, the half-maximal inhibitory concentration (IC50) was 325 nM at Caspase-6, greater than 50000 nM at Caspase-8, 583 nM at Caspase-3 and 878 nM on Caspase-7.

Take `N#CC(C#N)=C1C(=O)N(Cc2ccccc2)c2ccc(S(=O)(=O)N3CCSCC3)cc21`: the IC50 was 151 nM on Caspase-6; 4580 nM on Caspase-1; greater than 50000 nM on Caspase-8; 1450 nM at Caspase-3; 1620 nM on Caspase-7.

`O=C1C(=O)N(Cc2ccccc2)c2ccc(S(=O)(=O)N3CCC[C@H]3COc3ccccc3)cc21`: the results for the IC50 at Caspase-6 and on Caspase-3 were greater than 5000 nM and 14.5 nM, respectively.

Consider `N#CC(C#N)=C1C(=O)N(Cc2ccccc2)c2ccc(S(=O)(=O)N3CCCC3)cc21`, for which the IC50 at Caspase-6 was 241 nM; at Caspase-1, 4700 nM; at Caspase-8, greater than 50000 nM; on Caspase-3, 671 nM; on Caspase-7, 587 nM.

Regarding `O=C1Nc2ccc(S(=O)(=O)N3CCOCC3)cc2C1=O`, the IC50 at Caspase-6 is greater than 20000 nM; on Caspase-1 it was greater than 25000 nM; on Caspase-8 it was greater than 50000 nM; at Caspase-3, greater than 20000 nM; at Caspase-7, greater than 20000 nM.

Regarding `COc1ccc(CN2C(=O)C(=C(C#N)C#N)c3cc(S(=O)(=O)N4CCCCC4)ccc32)cc1`, the IC50 at Caspase-6 is 545 nM; on Caspase-1 it was greater than 10000 nM; at Caspase-8, greater than 50000 nM; on Caspase-3, 1400 nM; on Caspase-7, 1150 nM.

In the case of `O=C1C(=O)N(Cc2ccccc2)c2ccc(S(=O)(=O)N3CCSCC3)cc21`, the IC50 was 12800 nM at Caspase-6; greater than 10000 nM on Caspase-1; greater than 50000 nM at Caspase-8; 1030 nM at Caspase-3; 1480 nM on Caspase-7. Further, the fold change (FC) in the test listed under Homo sapiens was 10.

Turning to `COc1ccc(CN2C(=O)C(=C(C#N)C#N)c3cc(S(=O)(=O)N4CCCC4)ccc32)cc1`, the IC50 on Caspase-6 is 358 nM; at Caspase-1, 4700 nM; on Caspase-8, greater than 50000 nM; at Caspase-3, 673 nM; at Caspase-7, 443 nM.

`N#CC(C#N)=C1C(=O)N(Cc2ccc(Cl)c(Cl)c2)c2ccc(S(=O)(=O)N3CCSCC3)cc21`: the IC50 was 230 nM on Caspase-6; 5350 nM at Caspase-1; greater than 50000 nM on Caspase-8; 1990 nM at Caspase-3; 5100 nM on Caspase-7.

Regarding `N#CC(C#N)=C1C(=O)N(Cc2ccccc2)c2ccc(S(=O)(=O)N3CCC3)cc21`, the IC50 at Caspase-6 is 156 nM; on Caspase-1, 3300 nM; on Caspase-8, greater than 50000 nM; at Caspase-3, 323 nM; on Caspase-7, 248 nM.

Take `COc1ccc(CN2C(=O)C(=C(C#N)C#N)c3cc(S(=O)(=O)N4CCSCC4)ccc32)cc1`: the 50% inhibitory concentration (IC50) at Caspase-6 was 188 nM; at Caspase-1 it was 4300 nM; on Caspase-8, greater than 50000 nM; at Caspase-3 it was 1670 nM; on Caspase-7, 1890 nM.

As for `O=C1C(=O)N(Cc2ccc(Cl)c(Cl)c2)c2ccc(S(=O)(=O)N3CCOCC3)cc21`, the IC50 on Caspase-6 is greater than 15000 nM; on Caspase-1, greater than 25000 nM; on Caspase-8, greater than 50000 nM; on Caspase-3, 1430 nM; at Caspase-7, 2230 nM.

On to `N#CC(C#N)=C1C(=O)N(Cc2ccc(Cl)c(Cl)c2)c2ccc(S(=O)(=O)N3CCCC3)cc21`, for which the half-maximal inhibitory concentration (IC50) was 468 nM at Caspase-6; greater than 10000 nM on Caspase-1; greater than 50000 nM at Caspase-8; 724 nM on Caspase-3; 471 nM at Caspase-7.

On to `CC(=O)N[C@@H](CC(=O)O)C(=O)N[C@@H](CCC(=O)O)C(=O)N[C@H](C(=O)N[C@H](C=O)CC(=O)O)C(C)C`, for which the IC50 on Caspase-7 was 2.95 nM.

As to `N#CC(C#N)=C1C(=O)N(Cc2ccccc2)c2ccc(S(=O)(=O)N3CCOCC3)cc21`, the concentration for half-maximal inhibition (IC50) at Caspase-6 is 425 nM; at Caspase-8, greater than 50000 nM; on Caspase-3 it was 4700 nM; at Caspase-7, 4470 nM.

As for `COc1ccc(CN2C(=O)C(=C(C#N)C#N)c3cc(S(=O)(=O)N4CCC4)ccc32)cc1`, the IC50 was 197 nM on Caspase-6; 4180 nM on Caspase-1; greater than 50000 nM on Caspase-8; 718 nM on Caspase-3; 471 nM on Caspase-7.

With `N#CC(C#N)=C1C(=O)N(Cc2ccc(Cl)c(Cl)c2)c2ccc(S(=O)(=O)N3CCCCC3)cc21`, the IC50 on Caspase-6 is 568 nM; at Caspase-1 it was greater than 10000 nM; on Caspase-8, greater than 50000 nM; at Caspase-3 it was 529 nM; at Caspase-7 it was 3420 nM.

For `N#CC(C#N)=C1C(=O)N(Cc2ccc(Cl)c(Cl)c2)c2ccc(S(=O)(=O)N3CCC3)cc21`, the IC50 at Caspase-6 is 280 nM; on Caspase-1 it was greater than 10000 nM; on Caspase-8, greater than 50000 nM; on Caspase-3, 365 nM; at Caspase-7 it was 340 nM.

`N#CC(C#N)=C1C(=O)N(Cc2ccc(Cl)c(Cl)c2)c2ccc(S(=O)(=O)N3CCOCC3)cc21`: the IC50 at Caspase-6 is 592 nM; on Caspase-1, 5350 nM; at Caspase-8 it was greater than 50000 nM; at Caspase-3 it was 1550 nM; at Caspase-7, 7900 nM.

With `O=C1C(=O)N(Cc2ccccc2)c2ccc(S(=O)(=O)N3CCC3)cc21`, the IC50 was 9830 nM on Caspase-6; greater than 10000 nM on Caspase-1; greater than 50000 nM at Caspase-8; 114 nM on Caspase-3; 132 nM on Caspase-7.
